Measurements: ChEMBL document CHEMBL1201862, “PubChem BioAssay data set” (2004)
Activity calls are given as the source filed them.

Legend:
Trypsin = Trypsin (Sus scrofa, UniProt P00761); experiment: trypsin protease activity blockade – biochemical, quenched peptide fluorescence, cherry-pick, selectivity assay for Rce1 protease inhibitor project, dose response (AID 488789)
[1] = nonselective StAR promoter luciferase inhibitors – cell-based, luminescence, luciferase reporter, counter-screen for LRH-1 inverse agonist project, dose response (AID 651969); type: functional
[2] = target: T1, Lysine-specific demethylase 4C (Homo sapiens, UniProt Q9H3R0); experiment: inhibition of JMJD2C H3K9me3 demethylation – biochemical, DELFIA europium, cherry-picked samples, dose response (AID 488835); type: functional
T1 sequence (Q9H3R0 whole entry): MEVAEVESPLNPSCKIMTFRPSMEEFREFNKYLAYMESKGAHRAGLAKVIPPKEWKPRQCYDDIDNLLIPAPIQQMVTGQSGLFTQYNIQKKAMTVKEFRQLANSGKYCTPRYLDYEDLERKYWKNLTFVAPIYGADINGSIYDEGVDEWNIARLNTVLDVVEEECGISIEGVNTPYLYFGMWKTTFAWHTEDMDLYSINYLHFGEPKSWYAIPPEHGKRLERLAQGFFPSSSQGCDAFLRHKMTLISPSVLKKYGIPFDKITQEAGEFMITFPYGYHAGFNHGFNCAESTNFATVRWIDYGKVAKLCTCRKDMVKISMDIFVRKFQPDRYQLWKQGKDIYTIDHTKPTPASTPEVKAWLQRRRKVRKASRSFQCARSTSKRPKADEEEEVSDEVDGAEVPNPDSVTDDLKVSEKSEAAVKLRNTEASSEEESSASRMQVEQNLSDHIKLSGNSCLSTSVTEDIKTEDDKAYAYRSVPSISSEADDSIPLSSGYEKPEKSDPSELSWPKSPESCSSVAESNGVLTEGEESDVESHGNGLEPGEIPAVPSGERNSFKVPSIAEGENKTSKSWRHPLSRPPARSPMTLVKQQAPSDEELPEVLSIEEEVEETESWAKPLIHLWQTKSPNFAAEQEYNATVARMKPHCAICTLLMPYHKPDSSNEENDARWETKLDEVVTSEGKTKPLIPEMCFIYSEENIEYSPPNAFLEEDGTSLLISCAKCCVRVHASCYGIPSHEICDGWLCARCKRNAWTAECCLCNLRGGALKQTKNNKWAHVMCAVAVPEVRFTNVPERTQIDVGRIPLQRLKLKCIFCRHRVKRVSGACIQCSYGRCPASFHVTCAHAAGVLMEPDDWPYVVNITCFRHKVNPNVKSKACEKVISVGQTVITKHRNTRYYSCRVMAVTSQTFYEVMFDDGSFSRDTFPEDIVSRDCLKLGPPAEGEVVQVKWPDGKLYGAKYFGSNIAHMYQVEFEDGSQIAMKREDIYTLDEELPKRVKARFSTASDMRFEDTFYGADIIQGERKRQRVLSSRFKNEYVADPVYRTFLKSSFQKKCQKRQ

INS1 = experiment: INS-1E survival protection against cytokine death – cell-based, luminescence, retest, dose response (AID 449756); type: functional; details: Rattus norvegicus;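 note: cell death triggered by IL-1 beta plus TNF-alpha plus IFN-gamma mixture; protective hits raise ATP signal compared with cytokine alone wells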
[3] = viability of uninfected HEp-2 cells – cell-based, HTS, cytotoxicity control for RSV inhibitor project, dose response (AID 2410); type: functional; details: human respiratory syncytial virus
[4] = target: T2, Calpain-2 catalytic subunit (Sus scrofa, UniProt P43367); experiment: m-calpain protease blockers, concentration series – biochemical, fluorogenic peptide substrate, dose response (AID 1420); type: functional
T2 sequence (P43367 whole entry): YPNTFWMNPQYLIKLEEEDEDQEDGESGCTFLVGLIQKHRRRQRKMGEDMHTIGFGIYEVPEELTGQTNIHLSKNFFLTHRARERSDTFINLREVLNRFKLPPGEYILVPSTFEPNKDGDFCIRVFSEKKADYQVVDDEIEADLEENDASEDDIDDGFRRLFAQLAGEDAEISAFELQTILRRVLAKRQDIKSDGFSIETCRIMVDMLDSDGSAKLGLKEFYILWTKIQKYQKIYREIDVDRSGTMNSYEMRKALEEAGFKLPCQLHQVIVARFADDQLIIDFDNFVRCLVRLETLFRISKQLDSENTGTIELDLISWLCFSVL

Cysteine protease ATG4B = target: T3, Cysteine protease ATG4B (Homo sapiens, UniProt Q9Y4P1); type: functional;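 note: Fluorescence-based dose-response confirmation assay measuring inhibition of ATG4B activity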
T3 sequence (Q9Y4P1 whole entry): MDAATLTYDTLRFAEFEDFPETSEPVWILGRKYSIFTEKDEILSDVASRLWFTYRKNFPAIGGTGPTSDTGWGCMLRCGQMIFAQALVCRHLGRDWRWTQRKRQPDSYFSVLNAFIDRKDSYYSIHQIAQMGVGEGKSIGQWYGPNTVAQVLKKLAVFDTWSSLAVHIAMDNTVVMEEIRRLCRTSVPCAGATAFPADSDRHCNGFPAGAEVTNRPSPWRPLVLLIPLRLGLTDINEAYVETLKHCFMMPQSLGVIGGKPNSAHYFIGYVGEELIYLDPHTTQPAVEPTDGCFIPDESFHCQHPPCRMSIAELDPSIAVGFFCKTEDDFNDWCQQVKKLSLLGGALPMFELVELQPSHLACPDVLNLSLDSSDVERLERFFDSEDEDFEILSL

Phospholipase A2 = Phospholipase A2 (Homo sapiens, UniProt P04054); type: functional;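 note: confirmatory dose-response counterscreen on phospholipase A2, testing hits that came from an ultra-high-throughput screen for ATG4B inhibitors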
Sequence of Phospholipase A2 (P04054 whole entry): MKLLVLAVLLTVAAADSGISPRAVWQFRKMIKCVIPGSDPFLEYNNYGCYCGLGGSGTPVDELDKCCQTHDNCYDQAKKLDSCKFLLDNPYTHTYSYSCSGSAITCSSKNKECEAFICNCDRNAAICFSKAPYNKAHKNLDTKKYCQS

[5] = target: Heat shock protein HSP 90-alpha (Homo sapiens, UniProt P07900); type: functional, organism-based
[6] = target: T4, E3 ubiquitin-protein ligase XIAP (Homo sapiens, UniProt P98170); experiment: Counter Screen using XIAP-Bir3 for Chemical Antagonists of Bir1/2 domains of IAP-family anti-apoptotic proteins. [Related pubchem assays (depositor defined):AID1018, AID1449, AID1514, AID1638, AID1749, AID1750, AID488957, AID488963]
T4 sequence (P98170 whole entry): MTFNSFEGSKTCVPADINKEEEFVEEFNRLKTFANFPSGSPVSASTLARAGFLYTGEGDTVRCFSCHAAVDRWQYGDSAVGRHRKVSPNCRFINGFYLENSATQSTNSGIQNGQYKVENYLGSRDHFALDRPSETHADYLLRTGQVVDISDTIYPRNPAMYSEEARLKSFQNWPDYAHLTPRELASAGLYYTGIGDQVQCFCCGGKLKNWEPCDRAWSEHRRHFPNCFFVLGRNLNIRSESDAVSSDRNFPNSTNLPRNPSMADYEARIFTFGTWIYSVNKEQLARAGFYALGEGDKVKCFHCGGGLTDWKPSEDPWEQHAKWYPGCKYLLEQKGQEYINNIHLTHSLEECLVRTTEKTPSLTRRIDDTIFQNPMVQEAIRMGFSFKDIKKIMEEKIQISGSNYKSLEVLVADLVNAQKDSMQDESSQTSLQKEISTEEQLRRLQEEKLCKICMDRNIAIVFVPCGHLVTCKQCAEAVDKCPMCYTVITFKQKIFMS

[7] = target: T4, E3 ubiquitin-protein ligase XIAP; experiment: small molecules displacing peptide from XIAP – biochemical, IAP family, fluorescence polarization (AID 1018); type: functional
[8] = target: T5, Replicative DNA helicase DnaB (Mycobacterium tuberculosis, UniProt P9WMR3); experiment: DnaB intein splicing inhibitors, dose response, biochemical, cell-free fluorescence (AID 449749); type: functional
T5 sequence (P9WMR3 whole entry): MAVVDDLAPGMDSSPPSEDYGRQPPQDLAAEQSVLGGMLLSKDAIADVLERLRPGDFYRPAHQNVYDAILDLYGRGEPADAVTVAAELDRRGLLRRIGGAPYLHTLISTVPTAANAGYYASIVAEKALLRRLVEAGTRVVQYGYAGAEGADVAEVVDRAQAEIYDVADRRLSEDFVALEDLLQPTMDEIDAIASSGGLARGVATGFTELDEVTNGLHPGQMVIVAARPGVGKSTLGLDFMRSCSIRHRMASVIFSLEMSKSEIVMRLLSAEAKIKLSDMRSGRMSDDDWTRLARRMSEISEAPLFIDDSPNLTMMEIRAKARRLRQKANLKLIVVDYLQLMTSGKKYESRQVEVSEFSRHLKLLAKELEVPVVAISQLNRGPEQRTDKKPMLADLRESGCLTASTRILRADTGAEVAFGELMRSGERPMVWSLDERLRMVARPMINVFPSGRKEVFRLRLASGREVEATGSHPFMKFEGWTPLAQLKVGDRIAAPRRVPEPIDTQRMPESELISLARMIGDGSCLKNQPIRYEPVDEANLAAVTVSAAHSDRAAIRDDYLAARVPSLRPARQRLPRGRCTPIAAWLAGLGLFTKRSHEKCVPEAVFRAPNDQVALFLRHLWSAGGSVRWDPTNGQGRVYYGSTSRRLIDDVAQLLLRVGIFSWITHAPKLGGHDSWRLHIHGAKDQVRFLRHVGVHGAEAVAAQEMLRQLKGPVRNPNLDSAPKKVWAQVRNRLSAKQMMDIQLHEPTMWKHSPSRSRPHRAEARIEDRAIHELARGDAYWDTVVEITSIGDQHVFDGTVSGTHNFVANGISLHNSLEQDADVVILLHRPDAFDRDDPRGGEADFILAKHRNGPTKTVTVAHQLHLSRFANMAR

Protein RecA = target: T6, Protein RecA (Mycobacterium tuberculosis, UniProt P9WHJ3); experiment: Fluorescence Cell-Free Homogeneous Dose Retest to Identify Inhibitors of RecA-Intein Splicing Activity. [Related pubchem assays (depositor defined):AID2097, AID2223, AID489010, AID492950]; type: functional
T6 sequence (P9WHJ3 whole entry): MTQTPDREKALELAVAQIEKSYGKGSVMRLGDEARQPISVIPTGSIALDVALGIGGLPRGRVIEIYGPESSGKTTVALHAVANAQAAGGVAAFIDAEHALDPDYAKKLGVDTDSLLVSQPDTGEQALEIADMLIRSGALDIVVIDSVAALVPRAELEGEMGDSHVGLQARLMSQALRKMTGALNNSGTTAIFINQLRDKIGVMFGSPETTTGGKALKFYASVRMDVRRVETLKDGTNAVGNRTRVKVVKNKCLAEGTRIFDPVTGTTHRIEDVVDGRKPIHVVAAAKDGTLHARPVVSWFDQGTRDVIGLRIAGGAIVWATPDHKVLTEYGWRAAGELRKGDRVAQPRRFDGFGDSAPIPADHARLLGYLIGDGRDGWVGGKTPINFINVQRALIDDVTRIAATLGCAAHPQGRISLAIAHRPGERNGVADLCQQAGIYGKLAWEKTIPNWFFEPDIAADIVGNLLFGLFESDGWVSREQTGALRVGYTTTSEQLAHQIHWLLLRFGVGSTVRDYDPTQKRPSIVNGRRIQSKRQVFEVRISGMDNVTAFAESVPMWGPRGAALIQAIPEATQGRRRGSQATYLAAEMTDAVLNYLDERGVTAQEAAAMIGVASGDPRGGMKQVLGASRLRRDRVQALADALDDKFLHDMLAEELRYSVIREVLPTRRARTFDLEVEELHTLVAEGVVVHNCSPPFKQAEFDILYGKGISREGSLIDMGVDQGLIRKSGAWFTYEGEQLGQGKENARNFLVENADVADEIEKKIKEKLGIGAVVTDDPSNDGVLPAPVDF

Genome polyprotein = Genome polyprotein (dengue virus type 2, UniProt P29990); experiment: flavivirus cap methylation enzyme inhibition – biochemical, confirmation dose response, primary screen (AID 588689); type: functional
Sequence of Genome polyprotein (P29990 2492-3391 limits assumed): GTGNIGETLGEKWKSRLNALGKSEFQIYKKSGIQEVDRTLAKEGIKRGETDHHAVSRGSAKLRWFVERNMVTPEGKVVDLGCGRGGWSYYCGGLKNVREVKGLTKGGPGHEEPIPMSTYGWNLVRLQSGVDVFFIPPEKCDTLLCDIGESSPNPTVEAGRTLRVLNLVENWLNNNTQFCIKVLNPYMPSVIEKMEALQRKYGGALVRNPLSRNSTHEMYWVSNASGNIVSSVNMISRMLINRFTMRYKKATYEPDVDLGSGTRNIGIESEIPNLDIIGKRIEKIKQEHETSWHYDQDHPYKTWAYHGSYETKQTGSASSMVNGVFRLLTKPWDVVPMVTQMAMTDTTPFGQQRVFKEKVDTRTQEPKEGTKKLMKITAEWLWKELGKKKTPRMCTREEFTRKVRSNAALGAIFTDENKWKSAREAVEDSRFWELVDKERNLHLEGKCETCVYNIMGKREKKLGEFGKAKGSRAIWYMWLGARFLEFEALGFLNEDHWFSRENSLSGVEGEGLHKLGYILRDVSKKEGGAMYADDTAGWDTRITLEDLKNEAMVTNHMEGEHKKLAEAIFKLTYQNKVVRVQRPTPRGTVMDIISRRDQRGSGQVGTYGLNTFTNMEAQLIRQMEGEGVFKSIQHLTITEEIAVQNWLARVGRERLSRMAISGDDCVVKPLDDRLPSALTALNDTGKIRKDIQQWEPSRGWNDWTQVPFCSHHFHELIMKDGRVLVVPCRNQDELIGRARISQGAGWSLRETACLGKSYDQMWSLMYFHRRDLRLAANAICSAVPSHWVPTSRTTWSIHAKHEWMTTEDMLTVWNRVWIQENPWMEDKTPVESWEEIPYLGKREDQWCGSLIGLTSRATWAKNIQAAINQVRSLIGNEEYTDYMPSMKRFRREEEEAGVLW

Caspase-6 = target: T7, Caspase-6 (Homo sapiens, UniProt P55212); experiment: inhibition of CASP6 peptide cleavage – biochemical, VEID-R110 fluorescence, cherry-pick, dose response (AID 720632)
T7 sequence (P55212 whole entry): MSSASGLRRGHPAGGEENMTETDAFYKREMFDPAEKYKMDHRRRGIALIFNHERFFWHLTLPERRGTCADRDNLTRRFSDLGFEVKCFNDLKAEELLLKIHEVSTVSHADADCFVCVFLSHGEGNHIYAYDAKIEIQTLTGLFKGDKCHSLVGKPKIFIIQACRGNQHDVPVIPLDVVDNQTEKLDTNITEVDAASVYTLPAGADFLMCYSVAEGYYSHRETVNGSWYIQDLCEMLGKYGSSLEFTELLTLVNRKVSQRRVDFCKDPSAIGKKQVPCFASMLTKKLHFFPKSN

Large T antigen = Large T antigen (Simian virus 40, UniProt P03070); type: functional, Betapolyomavirus macacae;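 note: Confirmatory-stage PubChem screen for compounds that inhibit SV40 T antigen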
Sequence of Large T antigen (P03070 whole entry): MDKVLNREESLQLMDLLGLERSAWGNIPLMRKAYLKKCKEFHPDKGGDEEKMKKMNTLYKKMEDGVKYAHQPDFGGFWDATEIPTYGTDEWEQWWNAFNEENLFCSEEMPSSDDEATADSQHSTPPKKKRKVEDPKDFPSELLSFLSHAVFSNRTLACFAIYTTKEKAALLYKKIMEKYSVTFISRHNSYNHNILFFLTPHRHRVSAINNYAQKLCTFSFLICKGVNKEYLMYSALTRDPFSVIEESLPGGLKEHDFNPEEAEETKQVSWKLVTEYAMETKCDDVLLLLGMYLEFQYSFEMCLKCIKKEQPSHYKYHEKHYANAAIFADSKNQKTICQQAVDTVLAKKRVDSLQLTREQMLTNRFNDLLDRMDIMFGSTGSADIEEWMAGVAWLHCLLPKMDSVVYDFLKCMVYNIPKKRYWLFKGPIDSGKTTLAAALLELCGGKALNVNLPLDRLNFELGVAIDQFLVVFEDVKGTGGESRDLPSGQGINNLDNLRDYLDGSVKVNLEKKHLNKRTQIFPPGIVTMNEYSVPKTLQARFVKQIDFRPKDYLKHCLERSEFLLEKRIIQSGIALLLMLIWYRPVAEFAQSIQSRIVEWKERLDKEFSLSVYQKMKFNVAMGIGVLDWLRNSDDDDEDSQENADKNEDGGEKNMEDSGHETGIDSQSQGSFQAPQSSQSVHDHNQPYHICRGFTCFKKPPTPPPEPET

Sequence of Trypsin (P00761 whole entry): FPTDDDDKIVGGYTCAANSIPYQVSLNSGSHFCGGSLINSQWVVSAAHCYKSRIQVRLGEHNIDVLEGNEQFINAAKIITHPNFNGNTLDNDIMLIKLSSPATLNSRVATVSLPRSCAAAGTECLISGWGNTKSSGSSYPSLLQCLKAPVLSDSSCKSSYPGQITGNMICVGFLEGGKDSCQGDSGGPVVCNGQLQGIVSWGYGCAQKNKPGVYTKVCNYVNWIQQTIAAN

O=C(Nc1ccccc1)n1ccc(-c2ccc(-n3ccnc3)cc2)n1
AC50 (Trypsin): 17.9 µM (active)

CCc1c(C)nc(SCC(=O)Nc2ccc3c(c2)OCCO3)nc1O
IC50 [1]: 35.9 µM (inactive)

CCC(C)N=C(S)N1CCN(C)CC1 (centres undefined)
AC50 [2]: 26.5 µM (active)

O=S(=O)(c1ccc2nc(Nc3ccccc3)ccc2c1)N1CCCCC1
AC50 [2]: 6.53 µM (active)
AC50 (INS1): 12.2 µM (active)

CC(C)(C)c1nc(SCC(=O)c2ccccc2)c2ccccc2n1
CC50 [3]: 39.5 µM (active)
IC50 [4]: > 50 µM (not active)
IC50 (Cysteine protease ATG4B): 15.8 µM (active)
IC50 (Phospholipase A2): 10.1 µM (active)

CCOC(=O)c1c(C)n(C)c2ccc(O)c(S(=O)(=O)c3ccccc3)c12
AC50 [2]: 9.92 µM (active)

CC(=N)/C(C#N)=C(/O)COC(=O)c1ccncc1
IC50 (cells): 1.14 µM (active)

COc1ccccc1-c1sc2cc3c(cc2c1-c1ccc(O)cc1)OCO3
AC50 [5]: 8.22 µM (active)

CCOc1ccccc1N1CCN(C(=O)c2cccc(-c3ccc(O)cc3)c2)CC1
IC50 [6]: > 100 µM (inactive)
IC50 [7]: > 100 µM (not active)
AC50 [5]: 3.3 µM (active)

CCn1c(=O)c2cc(C(=O)N(C)c3cc(C)ccc3OC)sc2c2ccccc21
CC50 [3]: 21.2 µM (active)
IC50 (cells): 21.5 µM (active)

COc1ccc2nc3cccc(OC)c3nc2c1
AC50 [8]: > 380 µM (inactive)
EC50 (Protein RecA): 20.8 µM (active)
IC50 (Genome polyprotein): > 100 µM (active)
AC50 (Caspase-6): 23.1 µM (active)

O=S(=O)(Nc1ccc(O)cc1)c1cccc2cccnc12
IC50 (Large T antigen): 7.36 µM (active)

CCOc1ccc(NC(=NCc2ccc3c(c2)OCO3)SC2CC(=O)N(c3ccc(C(=O)O)cc3)C2=O)cc1 (centres undefined)
CC50 [3]: 22.8 µM (active)
IC50 (cells): 15.6 µM (active)
